What is called IC50 is the midpoint of a concentration-inhibition curve. Low readings indicate greater potency, high ones weaker potency.

Starred links: 1 amine or outer side, 2 acyl side, 3 side chain; linkers in the order of their positions; H or OH if unused. Non-standard residues stand in square brackets, D forms with d. Residues, ends and D or L forms follow the SMILES beside them. *: point of attachment. Ala(1H-tetrazol-5-yl) = N[C@@H](Cc1nnn[nH]1)C(=O)O; X1 = CC(C)[C@@H](C(=O)[*:2])N(CCc1ccccc1)[*:1]; Benzoyl(2-Ph) = O=C(c1ccccc1-c1ccccc1)*; Desaminotyrosyl = O=C(CCc1ccc(O)cc1)*; Butanoyl(4-Ph) = O=C(CCCc1ccccc1)*; Hydrocinnamoyl = O=C(CCc1ccccc1)*; Pentanoyl(4-Me) = CC(C)CCC(=O)*; X3 = CC(C)C[C@H](N*)c1nnn[nH]1; X2 = O=C(c1ccccc1Cc1ccccc1)*; NMeV = CN[C@H](C(=O)O)C(C)C

This assay concerns the target HSV-1 ribonucleotide reductase (Human herpesvirus 1, UniProt P08543). The experiment in a line: biochemical. An excerpt:
Inhibition of Herpes Simplex Virus (HSV, type 1) Ribonucleotide Reductase
• a) Preparation of Enzyme HSV-1 ribonucleotide reductase (partially purified) was obtained from quiescent BHK-21/C13 cells infected with strain F HSV-1 virus at 10 plaque forming units/cell as described by E.A. Cohen et al., J. Gen. […] The number of units of the enzyme preparation used in each assay was constant, based on the specific activity of the enzyme preparation.

Chain of HSV-1 ribonucleotide reductase (P08543 whole entry): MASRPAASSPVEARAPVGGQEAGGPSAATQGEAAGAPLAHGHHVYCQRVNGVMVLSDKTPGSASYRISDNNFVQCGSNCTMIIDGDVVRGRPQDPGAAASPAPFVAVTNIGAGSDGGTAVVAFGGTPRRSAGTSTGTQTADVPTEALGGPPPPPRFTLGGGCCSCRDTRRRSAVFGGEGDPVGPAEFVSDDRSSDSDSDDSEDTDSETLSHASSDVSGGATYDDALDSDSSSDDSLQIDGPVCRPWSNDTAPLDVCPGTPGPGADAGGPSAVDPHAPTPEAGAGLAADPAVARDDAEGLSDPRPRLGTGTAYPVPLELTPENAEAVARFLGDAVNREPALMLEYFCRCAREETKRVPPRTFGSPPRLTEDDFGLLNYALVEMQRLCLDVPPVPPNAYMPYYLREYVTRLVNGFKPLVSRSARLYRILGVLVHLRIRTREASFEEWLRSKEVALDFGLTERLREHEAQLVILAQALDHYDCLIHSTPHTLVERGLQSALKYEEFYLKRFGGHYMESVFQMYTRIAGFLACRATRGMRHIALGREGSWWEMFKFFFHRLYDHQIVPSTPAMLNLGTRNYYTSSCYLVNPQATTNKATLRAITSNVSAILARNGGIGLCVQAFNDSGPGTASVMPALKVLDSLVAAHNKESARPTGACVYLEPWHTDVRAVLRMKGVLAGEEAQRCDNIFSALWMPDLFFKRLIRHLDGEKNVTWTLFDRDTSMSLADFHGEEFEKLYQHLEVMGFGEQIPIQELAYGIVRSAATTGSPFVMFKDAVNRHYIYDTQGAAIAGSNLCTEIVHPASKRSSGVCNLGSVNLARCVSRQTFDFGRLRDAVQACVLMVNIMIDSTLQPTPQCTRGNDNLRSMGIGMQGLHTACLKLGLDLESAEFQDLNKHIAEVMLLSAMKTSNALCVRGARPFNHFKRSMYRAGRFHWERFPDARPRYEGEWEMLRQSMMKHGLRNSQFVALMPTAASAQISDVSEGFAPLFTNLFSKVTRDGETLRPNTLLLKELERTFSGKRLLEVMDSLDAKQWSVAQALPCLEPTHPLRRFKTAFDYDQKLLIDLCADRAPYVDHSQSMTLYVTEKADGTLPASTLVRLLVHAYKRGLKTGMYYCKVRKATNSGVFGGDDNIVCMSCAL

With `CC[C@H](C)[C@H](NC(=O)[C@H](C(C)C)N(C)C(=O)CCC(C)C)C(=O)N[C@@H](CC(N)=O)C(=O)N[C@@H](CC(=O)O)C(=O)N[C@@H](CC(C)C)C(=O)O` [(CH3)2CHCH2CH2CO / CH3 / CONH2 / COOH] ({Pentanoyl(4-Me)}-[NMeV]INDL-OH), the half-maximal inhibitory concentration (IC50) is 7.6 µM.

`CC[C@H](C)[C@H](NC(=O)[C@H](C(C)C)N(C)C(=O)CCc1ccccc1)C(=O)N[C@@H](Cc1nnn[nH]1)C(=O)N[C@@H](CC(=O)O)C(=O)N[C@@H](CC(C)C)C(=O)O` [PhCH2CH2CO / CH3 / 5-1H-t / COOH, PhCH2CH2CO-N-Me-Val-Ile-NHCH[CH2-5-1H-tetrazole]CO-Asp-Leu-OH] (Hydrocinnamoyl-[NMeV]I[Ala(1H-tetrazol-5-yl)]DL-OH) displayed a concentration for half-maximal inhibition (IC50) of 2 µM.

For `CC[C@H](C)[C@H](NC(=O)[C@H](C(C)C)N(C)C(=O)c1ccccc1Cc1ccccc1)C(=O)N[C@@H](CC(N)=O)C(=O)N[C@@H](CC(=O)O)C(=O)N[C@@H](CC(C)C)C(=O)O` (X2-[NMeV]INDL-OH), the concentration for half-maximal inhibition (IC50) came out at 5.5 µM.

Take `CC[C@H](C)[C@H](NC(=O)[C@H](C(C)C)N(C)C(=O)CCc1ccccc1)C(=O)N[C@@H](CC(N)=O)C(=O)N[C@@H](CC(=O)O)C(=O)N[C@@H](CC(C)C)c1nnn[nH]1` [PhCH2CH2CO / CH3 / CONH2 / 5-1H-t, PhCH,CH,CO-N-Me-Val-Ile-Asn-Asp-NHCH[CH2-CH(CH3)2]-5-1H-tetrazole] (Hydrocinnamoyl-[NMeV]IND-X3): the IC50 is 3.8 µM.

The molecule `CC[C@H](C)[C@H](NC(=O)[C@H](C(C)C)N(C)C(=O)c1ccccc1-c1ccccc1)C(=O)N[C@@H](CC(N)=O)C(=O)N[C@@H](CC(=O)O)C(=O)N[C@@H](CC(C)C)C(=O)O` ({Benzoyl(2-Ph)}-[NMeV]INDL-OH) returned a half-maximal inhibitory concentration (IC50) of 2.5 µM.

In the case of `CC[C@H](C)[C@H](NC(=O)[C@H](C(C)C)N(CCc1ccccc1)C(C)=O)C(=O)N[C@@H](CC(N)=O)C(=O)N[C@@H](CC(=O)O)C(=O)N[C@@H](CC(C)C)C(=O)O` [CH3CO / PhCH2CH2 / CONH2 / COOH] (Ac-[X1]INDL-OH), 17 µM corresponded to half-maximal inhibition (IC50). This IC50 lies about 6.8-fold higher than the previous one.

`CC[C@H](C)[C@H](NC(=O)[C@H](C(C)C)N(C)C(=O)CCCc1ccccc1)C(=O)N[C@@H](CC(N)=O)C(=O)N[C@@H](CC(=O)O)C(=O)N[C@@H](CC(C)C)C(=O)O` [PhCH2CH2CH2CO / CH3 / CONH2 / COOH] ({Butanoyl(4-Ph)}-[NMeV]INDL-OH) displayed a half-inhibitory concentration (IC50) of 6.2 µM.

In turn, `CC[C@H](C)[C@H](NC(=O)[C@H](C(C)C)N(C)C(=O)CCc1ccc(O)cc1)C(=O)N[C@@H](CC(N)=O)C(=O)N[C@@H](CC(=O)O)C(=O)N[C@@H](CC(C)C)C(=O)O` [DAT / CH3 / CONH2 / COOH, DAT-N-Me-Val-Ile-Asn-Asp-Leu-OH] (Desaminotyrosyl-[NMeV]INDL-OH) registered a concentration for half-maximal inhibition (IC50) of 6 µM.
